Read-outs that look alike come from different tables or passages of the source.
How the values were obtained:
[1] = biological target: T1, AEA-DA lipid probe targets in Neuro2a cells (Mus musculus, UniProt Q9DBH5)
T1 sequence (Q9DBH5 47-358): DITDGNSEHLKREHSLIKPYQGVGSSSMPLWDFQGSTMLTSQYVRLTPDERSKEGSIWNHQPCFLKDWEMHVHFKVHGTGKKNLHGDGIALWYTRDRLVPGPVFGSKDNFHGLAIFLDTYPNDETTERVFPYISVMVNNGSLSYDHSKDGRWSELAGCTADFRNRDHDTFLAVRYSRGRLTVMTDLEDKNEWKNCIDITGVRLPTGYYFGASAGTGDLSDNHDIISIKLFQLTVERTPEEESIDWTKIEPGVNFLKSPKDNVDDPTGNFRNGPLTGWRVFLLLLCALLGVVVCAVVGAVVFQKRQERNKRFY

[2] = biological target: T2, AEA-DA lipid probe targets in Neuro2a cells (Mus musculus, UniProt Q8BHC4); settings: for SILAC ratio, DCAKD (Q8BHC4): Neuro2a cells, AEA-DA probe
T2 sequence (Q8BHC4 1-231): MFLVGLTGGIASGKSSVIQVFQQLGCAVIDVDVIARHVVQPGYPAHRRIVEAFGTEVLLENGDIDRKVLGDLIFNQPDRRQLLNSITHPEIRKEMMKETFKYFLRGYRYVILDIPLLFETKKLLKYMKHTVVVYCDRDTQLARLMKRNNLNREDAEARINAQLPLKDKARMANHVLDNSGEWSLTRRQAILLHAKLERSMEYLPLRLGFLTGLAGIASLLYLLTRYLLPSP

[3] = biological target: T3, AEA-DA lipid probe targets in Neuro2a cells (Mus musculus, UniProt Q8K411)
T3 sequence (Q8K411 16-1036): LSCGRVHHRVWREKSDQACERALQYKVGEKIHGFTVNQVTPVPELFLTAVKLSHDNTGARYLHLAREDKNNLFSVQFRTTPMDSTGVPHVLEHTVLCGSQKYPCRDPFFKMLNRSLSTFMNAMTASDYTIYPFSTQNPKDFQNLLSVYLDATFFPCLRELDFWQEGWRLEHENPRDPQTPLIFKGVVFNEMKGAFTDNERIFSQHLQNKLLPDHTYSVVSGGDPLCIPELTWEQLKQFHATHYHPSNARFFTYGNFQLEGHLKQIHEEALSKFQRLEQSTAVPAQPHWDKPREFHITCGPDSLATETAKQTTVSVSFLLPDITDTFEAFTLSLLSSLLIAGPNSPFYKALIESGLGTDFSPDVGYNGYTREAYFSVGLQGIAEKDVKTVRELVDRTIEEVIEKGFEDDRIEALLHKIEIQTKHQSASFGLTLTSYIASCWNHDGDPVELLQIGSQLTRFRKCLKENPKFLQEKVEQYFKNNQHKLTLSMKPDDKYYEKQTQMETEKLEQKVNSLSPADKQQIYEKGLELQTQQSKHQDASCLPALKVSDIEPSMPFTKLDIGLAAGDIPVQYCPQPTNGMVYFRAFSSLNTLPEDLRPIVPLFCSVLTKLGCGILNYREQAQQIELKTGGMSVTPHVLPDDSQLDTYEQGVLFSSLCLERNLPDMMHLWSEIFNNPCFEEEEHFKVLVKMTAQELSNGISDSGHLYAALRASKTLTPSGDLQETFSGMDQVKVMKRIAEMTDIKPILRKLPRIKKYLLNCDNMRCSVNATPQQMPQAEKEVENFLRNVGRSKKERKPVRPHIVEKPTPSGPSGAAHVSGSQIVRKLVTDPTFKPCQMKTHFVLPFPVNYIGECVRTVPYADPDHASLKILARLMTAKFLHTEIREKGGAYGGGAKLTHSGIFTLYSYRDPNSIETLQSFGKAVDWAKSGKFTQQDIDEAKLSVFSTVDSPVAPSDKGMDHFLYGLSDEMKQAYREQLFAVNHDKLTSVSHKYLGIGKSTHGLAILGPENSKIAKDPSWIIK

[4] = biological target: T4, AEA-DA lipid probe targets in Neuro2a cells (Mus musculus, UniProt Q61753)
T4 sequence (Q61753 1-533): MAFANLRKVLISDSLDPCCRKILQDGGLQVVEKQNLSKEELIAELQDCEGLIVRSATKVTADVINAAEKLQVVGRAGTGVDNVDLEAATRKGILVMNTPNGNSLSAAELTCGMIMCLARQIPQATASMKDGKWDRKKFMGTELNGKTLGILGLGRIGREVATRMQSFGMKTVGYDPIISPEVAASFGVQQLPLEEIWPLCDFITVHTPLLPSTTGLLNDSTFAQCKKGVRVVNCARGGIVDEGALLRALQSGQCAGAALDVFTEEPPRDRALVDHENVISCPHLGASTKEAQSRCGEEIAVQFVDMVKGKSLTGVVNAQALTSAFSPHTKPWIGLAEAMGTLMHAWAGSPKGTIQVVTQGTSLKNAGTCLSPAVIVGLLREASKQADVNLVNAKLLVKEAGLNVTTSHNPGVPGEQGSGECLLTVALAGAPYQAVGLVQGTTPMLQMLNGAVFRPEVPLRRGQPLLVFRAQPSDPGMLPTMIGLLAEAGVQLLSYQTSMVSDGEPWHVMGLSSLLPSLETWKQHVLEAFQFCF

[5] = biological target: AEA-DA lipid probe targets in Neuro2a cells (Mus musculus, UniProt Q8C0L6)
[6] = biological target: T5, AEA-DA lipid probe targets in Neuro2a cells (Mus musculus, UniProt Q505D7); settings: for SILAC ratio, OPA3 (Q505D7): Neuro2a cells, AEA-DA probe
T5 sequence (Q505D7 1-179): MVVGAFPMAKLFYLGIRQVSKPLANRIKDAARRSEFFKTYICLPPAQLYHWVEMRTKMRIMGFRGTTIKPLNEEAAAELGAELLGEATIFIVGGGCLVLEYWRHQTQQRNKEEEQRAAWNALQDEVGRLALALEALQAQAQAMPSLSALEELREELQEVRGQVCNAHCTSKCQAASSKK

Sequence of AEA-DA lipid probe targets in Neuro2a cells (Mus musculus, UniProt Q8C0L6) (Q8C0L6 whole entry): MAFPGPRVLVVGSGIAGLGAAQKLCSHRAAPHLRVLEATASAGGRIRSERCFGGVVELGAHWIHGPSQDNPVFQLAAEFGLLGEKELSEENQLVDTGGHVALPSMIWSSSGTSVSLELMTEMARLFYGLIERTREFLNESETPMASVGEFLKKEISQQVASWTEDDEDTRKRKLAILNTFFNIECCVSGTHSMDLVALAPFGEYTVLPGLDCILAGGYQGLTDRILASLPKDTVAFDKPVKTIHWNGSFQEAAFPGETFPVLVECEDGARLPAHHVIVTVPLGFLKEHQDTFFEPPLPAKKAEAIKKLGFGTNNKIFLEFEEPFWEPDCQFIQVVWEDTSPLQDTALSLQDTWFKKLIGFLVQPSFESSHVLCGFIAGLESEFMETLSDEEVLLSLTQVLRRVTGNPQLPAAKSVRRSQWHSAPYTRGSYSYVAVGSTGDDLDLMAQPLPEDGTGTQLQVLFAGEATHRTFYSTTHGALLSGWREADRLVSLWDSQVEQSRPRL

Compound	SILAC ratio Lman2 ([1]; competitor 25 μM)	SILAC ratio, DCAKD (Q8BHC4) ([2]; competitor 25 μM)	SILAC ratio, Dcakd ([2]; competitor 25 μM)	SILAC ratio, Pitrm1 ([3]; competitor 25 μM)	SILAC ratio, OPA3 (Q505D7) ([6]; competitor 25 μM)	SILAC ratio, Opa3 ([6]; competitor 25 μM)	SILAC ratio Phgdh ([4]; competitor 25 μM)	SILAC ratio, Paox ([5]; competitor 25 μM)	also measured
CCCCC/C=C\C/C=C\C/C=C\C/C=C\CCCC(=O)NCCO [AEA, anandamide, reference compound]									SILAC ratio Lman2 ([1]; competitor 200 μM): 1.5; SILAC ratio, DCAKD (Q8BHC4) ([2]; competitor 200 μM): 1.9; SILAC ratio, Dcakd ([2]; competitor 200 μM): 1.9; SILAC ratio, Pitrm1 ([3]; competitor 200 μM): 2.1; SILAC ratio Phgdh ([4]; competitor 200 μM): 1.2; SILAC ratio, Paox ([5]; competitor 200 μM): 7.5
O=C(/C=C/c1cccnc1)NCCCCC1CCN(C(=O)c2ccccc2)CC1 [FK-866, reference compound]	1.1	1.1	1.1	1.4	1.1	1.1	1.3	3.2	
CN1CCN(C(=O)c2c(-c3ccccc3)c3cc([N+](=O)[O-])ccc3n2C)CC1 [KML110, (1-Methyl-5-nitro-3-phenyl-1H-indol-2-yl)(4-methylpiperazin-1-yl)methanone]	1.3		1.4	2.0		1.6	1.5	2.9	
CN1CCN(C(=O)c2[nH]c3ccc([N+](=O)[O-])cc3c2-c2ccccc2)CC1 [MJN228, (4-Methylpiperazin-1-yl)(5-nitro-3-phenyl-1H-indol-2-yl)methanone]	1.1	1.4	1.4	1.9	1.4	1.4	1.1	3.2	SILAC ratio Lman2 ([1]; competitor 10 μM): 1.2; SILAC ratio Lman2 ([1]; competitor 50 μM): 2.1; SILAC ratio Lman2 ([1]; competitor 100 μM): 1.5; SILAC ratio, Dcakd ([2]; competitor 10 μM): 1.2; SILAC ratio, Dcakd ([2]; competitor 50 μM): 1.5; SILAC ratio, Dcakd ([2]; competitor 100 μM): 1.9; SILAC ratio, Pitrm1 ([3]; competitor 10 μM): 1.6; SILAC ratio, Pitrm1 ([3]; competitor 50 μM): 2.2; SILAC ratio, Pitrm1 ([3]; competitor 100 μM): 3.4; SILAC ratio, Opa3 ([6]; competitor 10 μM): 1.4; SILAC ratio, Opa3 ([6]; competitor 50 μM): 1.5; SILAC ratio, Opa3 ([6]; competitor 100 μM): 1.9; SILAC ratio Phgdh ([4]; competitor 10 μM): 1.2; SILAC ratio Phgdh ([4]; competitor 50 μM): 0.9; SILAC ratio Phgdh ([4]; competitor 100 μM): 1.1; SILAC ratio, Paox ([5]; competitor 10 μM): 2.1; SILAC ratio, Paox ([5]; competitor 50 μM): 4.5; SILAC ratio, Paox ([5]; competitor 100 μM): 13.5
C=CCN(C)CCCCCCOc1ccc(C(=O)c2ccc(Br)cc2)c(F)c1 [Ro 48-8071, reference compound]	0.7	1.0	1.0	1.0	1.4	1.4	1.0	2.4	

From patent US10168342B2, “Lipid probes and uses thereof” (THE SCRIPPS RESEARCH INSTITUTE, priority 2015, dated 2019)
